The values below come from patent publication US12139492B2 (Endotarget Inc., priority 2021, dated 2024).

The structures appear in SMILES notation. Read-outs that look alike come from different tables or passages of the source.

In general, Dmax refers to the largest share of the target that was removed. The DC50 is the concentration giving 50% degradation.

One assay concerns the target BTK (Homo sapiens, UniProt Q06187). Briefly: Degradation of BTK protein in Namalwa cells (Western blot; DC50, Dmax). The following applies: for DC50: cell line not given. A general note: Immunoblotting shows a protein as a band on a membrane.
Another assay deals with Mino cells. Put plainly: Antiproliferative effect, MTS cell viability assay, Mino cells. The note with it: Homo sapiens, MINO, Mino mantle cell lymphoma cells; read-out: IC50 (anti-proliferation) Mino cells. The format is cell-based. The method in brief:
(§1)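 Tested at six concentrations (0 to 10 μM in tenfold steps), 72 h; viability by MTS, A490.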

The test system of another assay is JeKo-1 cells. Put plainly: Antiproliferative effect, MTS cell viability assay, JeKo-1 cells. The format is cell-based. The following applies: Homo sapiens; JeKo-1 mantle cell lymphoma cells; read-out: IC50 (anti-proliferation) JeKO-1 cells. The method in brief:
as §1

[1] abbreviates: read-out: DC50 (BTK degradation), concentration giving 50% reduction of BTK expression level.
The mark [2] stands for this setting: read-out: Dmax (BTK degradation).

BTK, sequence (Q06187 whole entry): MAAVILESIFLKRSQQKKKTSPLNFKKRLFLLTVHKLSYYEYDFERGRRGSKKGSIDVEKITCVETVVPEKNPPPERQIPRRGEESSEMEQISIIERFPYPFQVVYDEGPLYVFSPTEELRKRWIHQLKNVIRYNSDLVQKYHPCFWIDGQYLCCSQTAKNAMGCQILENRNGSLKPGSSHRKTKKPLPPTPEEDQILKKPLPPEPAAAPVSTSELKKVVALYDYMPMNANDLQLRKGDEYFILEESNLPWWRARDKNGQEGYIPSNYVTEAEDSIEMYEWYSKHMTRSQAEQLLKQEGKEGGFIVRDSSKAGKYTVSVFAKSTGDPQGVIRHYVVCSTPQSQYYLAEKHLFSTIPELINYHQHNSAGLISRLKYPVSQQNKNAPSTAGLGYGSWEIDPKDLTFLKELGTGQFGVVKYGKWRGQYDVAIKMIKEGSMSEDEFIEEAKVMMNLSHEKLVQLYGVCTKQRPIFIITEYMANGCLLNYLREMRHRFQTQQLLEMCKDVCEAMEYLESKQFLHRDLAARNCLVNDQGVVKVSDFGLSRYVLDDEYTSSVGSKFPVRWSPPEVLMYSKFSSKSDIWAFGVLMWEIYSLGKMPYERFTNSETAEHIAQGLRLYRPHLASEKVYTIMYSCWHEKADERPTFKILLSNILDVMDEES

`NC(=O)c1c(-c2ccc(Oc3ccccc3)cc2)nn2c1NCC[C@H]2C1CCN(C2CCN(C(=O)N3CCC(N4CCC(c5ccc6c(c5)C(=O)N(C5CCC(=O)NC5=O)C6=O)CC4)CC3)CC2)CC1` (stereo partly drawn) [Compound 387, (7S)-7-(1′-(4-(2-(2,6-dioxopiperidin-3-yl)-1,3-dioxoisoindolin-5-yl)-[1,4′-bipiperidine]-1′-carbonyl)-[1,4′-bipiperidin]-4-yl)-2-(4-phenoxyphenyl)-4,5,6,7-tetrahydropyrazolo[1,5-a]pyrimidine-3-carboxamide]: the Dmax at BTK was greater than 90%. This compound came in with a DC50 on BTK (BTK degradation) of 10 to 50 nM. Moreover, the IC50 with Mino cells and in the assay on JeKo-1 cells was 1000 to 10000 nM in each case.
`NC(=O)c1c(-c2ccc(Oc3ccccc3)cc2)nn2c1NCC[C@H]2C1CCN(C2CCN(C(=O)N3CCC(N4CCC(c5ccc6c(c5)CN(C5CCC(=O)NC5=O)C6=O)CC4)CC3)CC2)CC1` (stereo partly drawn) [Compound 388, (7S)-7-(1′-(4-(2-(2,6-dioxopiperidin-3-yl)-1-oxoisoindolin-5-yl)-[1,4′-bipiperidine]-1′-carbonyl)-[1,4′-bipiperidin]-4-yl)-2-(4-phenoxyphenyl)-4,5,6,7-tetrahydropyrazolo[1,5-a]pyrimidine-3-carboxamide]: the Dmax on BTK was greater than 90%. This compound gave a DC50 at BTK (BTK degradation) of 10 to 50 nM. Besides, the results for the IC50 in the assay on Mino cells and in the assay with JeKo-1 cells were less than 1000 nM and 1000 to 10000 nM, respectively.
For `NC(=O)c1c(-c2ccc(Oc3ccccc3)cc2)nn2c1NCC[C@H]2C1CCN(C2CCN(C(=O)N3CCC(CN4CCN(c5ccc6c(c5)C(=O)N(C5CCC(=O)NC5=O)C6=O)CC4)CC3)CC2)CC1` (stereo partly drawn) [Compound 389, (7S)-7-(1′-(4-((4-(2-(2,6-dioxopiperidin-3-yl)-1,3-dioxoisoindolin-5-yl)piperazin-1-yl)methyl)piperidine-1-carbonyl)-[1,4′-bipiperidin]-4-yl)-2-(4-phenoxyphenyl)-4,5,6,7-tetrahydropyrazolo[1,5-a]pyrimidine-3-carboxamide] the same measures were greater than 90%, 10 to 50 nM, 1000 to 10000 nM and 1000 to 10000 nM.
The corresponding values for `NC(=O)c1c(-c2ccc(Oc3ccccc3)cc2)nn2c1NCC[C@H]2C1CCN(C2CCN(C(=O)N3CCC(CN4CCN(c5ccc6c(c5)CN(C5CCC(=O)NC5=O)C6=O)CC4)CC3)CC2)CC1` (stereo partly drawn) [Compound 390, (7S)-7-(1′-(4-((4-(2-(2,6-dioxopiperidin-3-yl)-1-oxoisoindolin-5-yl)piperazin-1-yl)methyl)piperidine-1-carbonyl)-[1,4′-bipiperidin]-4-yl)-2-(4-phenoxyphenyl)-4,5,6,7-tetrahydropyrazolo[1,5-a]pyrimidine-3-carboxamide] are greater than 90%, 10 to 50 nM, 1000 to 10000 nM and greater than 10000 nM.
The corresponding values for `NC(=O)c1c(-c2ccc(Oc3ccccc3)cc2)nn2c1NCC[C@H]2C1CCN(C2CCN(C(=O)N3CCN(CC4CCN(c5ccc6c(c5)C(=O)N(C5CCC(=O)NC5=O)C6=O)CC4)CC3)CC2)CC1` (stereo partly drawn) [Compound 391, (7S)-7-(1′-(4-((1-(2-(2,6-dioxopiperidin-3-yl)-1,3-dioxoisoindolin-5-yl)piperidin-4-yl)methyl)piperazine-1-carbonyl)-[1,4′-bipiperidin]-4-yl)-2-(4-phenoxyphenyl)-4,5,6,7-tetrahydropyrazolo[1,5-a]pyrimidine-3-carboxamide] are greater than 75%, 10 to 50 nM, greater than 10000 nM and greater than 10000 nM.
Regarding `NC(=O)c1c(-c2ccc(Oc3ccccc3)cc2)nn2c1NCC[C@H]2C1CCN(C2CCN(C(=O)N3CCN(CC4CCN(c5ccc6c(c5)CN(C5CCC(=O)NC5=O)C6=O)CC4)CC3)CC2)CC1` (stereo partly drawn) [Compound 392, (7S)-7-(1′-(4-((1-(2-(2,6-dioxopiperidin-3-yl)-1-oxoisoindolin-5-yl)piperidin-4-yl)methyl)piperazine-1-carbonyl)-[1,4′-bipiperidin]-4-yl)-2-(4-phenoxyphenyl)-4,5,6,7-tetrahydropyrazolo[1,5-a]pyrimidine-3-carboxamide], the Dmax at BTK is greater than 90%. The compound also displayed a DC50 on BTK (BTK degradation) of 10 to 50 nM. Moreover, the IC50 is less than 1000 nM in the assay on Mino cells and 1000 to 10000 nM with JeKo-1 cells.
`NC(=O)c1c(-c2ccc(Oc3ccccc3)cc2)nn2c1NCC[C@H]2C1CCN(C2CCN(C(=O)N3CCC(CC4CCN(c5ccc6c(c5)C(=O)N(C5CCC(=O)NC5=O)C6=O)CC4)CC3)CC2)CC1` (stereo partly drawn) [Compound 393, (7S)-7-(1′-(4-((1-(2-(2,6-dioxopiperidin-3-yl)-1,3-dioxoisoindolin-5-yl)piperidin-4-yl)methyl)piperidine-1-carbonyl)-[1,4′-bipiperidin]-4-yl)-2-(4-phenoxyphenyl)-4,5,6,7-tetrahydropyrazolo[1,5-a]pyrimidine-3-carboxamide]: the DC50 at BTK (setting [1]) was 10 to 50 nM. Besides, the Dmax at BTK (setting [2]) was greater than 75%. For the same compound, the IC50 with Mino cells and with JeKo-1 cells was 1000 to 10000 nM in each case.
For the compound `NC(=O)c1c(-c2ccc(Oc3ccccc3)cc2)nn2c1NCC[C@H]2C1CCN(C2CCN(C(=O)N3CCC(CC4CCN(c5ccc6c(c5)CN(C5CCC(=O)NC5=O)C6=O)CC4)CC3)CC2)CC1` (stereo partly drawn) [Compound 394, (7S)-7-(1′-(4-((1-(2-(2,6-dioxopiperidin-3-yl)-1-oxoisoindolin-5-yl)piperidin-4-yl)methyl)piperidine-1-carbonyl)-[1,4′-bipiperidin]-4-yl)-2-(4-phenoxyphenyl)-4,5,6,7-tetrahydropyrazolo[1,5-a]pyrimidine-3-carboxamide], at BTK (setting [1]), the DC50 lay in the range of 10 to 50 nM. Moreover, the Dmax at BTK (setting [2]) was greater than 75%. Also, the IC50 is less than 1000 nM with Mino cells and 1000 to 10000 nM with JeKo-1 cells.
The corresponding values for `NC(=O)c1c(-c2ccc(Oc3ccccc3)cc2)nn2c1NCC[C@H]2C1CCN(C2CCN(C(=O)N3CCC(CN4CCC(c5ccc6c(c5)C(=O)N(C5CCC(=O)NC5=O)C6=O)CC4)CC3)CC2)CC1` (stereo partly drawn) [Compound 395, (7S)-7-(1′-(4-((4-(2-(2,6-dioxopiperidin-3-yl)-1,3-dioxoisoindolin-5-yl)piperidin-1-yl)methyl)piperidine-1-carbonyl)-[1,4′-bipiperidin]-4-yl)-2-(4-phenoxyphenyl)-4,5,6,7-tetrahydropyrazolo[1,5-a]pyrimidine-3-carboxamide] are 10 to 50 nM, greater than 75%, 1000 to 10000 nM and 1000 to 10000 nM.
For `NC(=O)c1c(-c2ccc(Oc3ccccc3)cc2)nn2c1NCC[C@H]2C1CCN(C2CCN(C(=O)N3CCC(CN4CCC(c5ccc6c(c5)CN(C5CCC(=O)NC5=O)C6=O)CC4)CC3)CC2)CC1` (stereo partly drawn) [Compound 396, (7S)-7-(1′-(4-((4-(2-(2,6-dioxopiperidin-3-yl)-1-oxoisoindolin-5-yl)piperidin-1-yl)methyl)piperidine-1-carbonyl)-[1,4′-bipiperidin]-4-yl)-2-(4-phenoxyphenyl)-4,5,6,7-tetrahydropyrazolo[1,5-a]pyrimidine-3-carboxamide] the same measures were 10 to 50 nM, greater than 75%, 1000 to 10000 nM and greater than 10000 nM.
The corresponding values for `NC(=O)c1c(-c2ccc(Oc3ccccc3)cc2)nn2c1NCC[C@H]2C1CCN(CC2CCN(C(=O)N3CCN(c4ccc5c(c4)CN(C4CCC(=O)NC4=O)C5=O)CC3)CC2)CC1` (stereo partly drawn) [Compound 398, (7S)-7-(1-((1-(4-(2-(2,6-dioxopiperidin-3-yl)-1-oxoisoindolin-5-yl)piperazine-1-carbonyl)piperidin-4-yl)methyl)piperidin-4-yl)-2-(4-phenoxyphenyl)-4,5,6,7-tetrahydropyrazolo[1,5-a]pyrimidine-3-carboxamide] are greater than 50 nM, greater than 50%, greater than 10000 nM and greater than 10000 nM.
As to `NC(=O)c1c(-c2ccc(Oc3ccccc3)cc2)nn2c1NCC[C@H]2C1CCN(CC2CCN(C(=O)N3CCN(Cc4ccc5c(c4)C(=O)N(C4CCC(=O)NC4=O)C5=O)CC3)CC2)CC1` (stereo partly drawn) [Compound 399, (7S)-7-(1-((1-(4-((2-(2,6-dioxopiperidin-3-yl)-1,3-dioxoisoindolin-5-yl)methyl)piperazine-1-carbonyl)piperidin-4-yl)methyl)piperidin-4-yl)-2-(4-phenoxyphenyl)-4,5,6,7-tetrahydropyrazolo[1,5-a]pyrimidine-3-carboxamide], at BTK (setting [1]), the DC50 is greater than 50 nM. Also, the Dmax at BTK (setting [2]) was greater than 50%. For the same compound, the figures for the IC50 in the assay with Mino cells and in the assay with JeKo-1 cells were 1000 to 10000 nM and greater than 10000 nM, respectively.
The corresponding values for `NC(=O)c1c(-c2ccc(Oc3ccccc3)cc2)nn2c1NCC[C@H]2C1CCN(CC2CCN(C(=O)N3CCN(Cc4ccc5c(c4)CN(C4CCC(=O)NC4=O)C5=O)CC3)CC2)CC1` (stereo partly drawn) [Compound 400, (7S)-7-(1-((1-(4-((2-(2,6-dioxopiperidin-3-yl)-1-oxoisoindolin-5-yl)methyl)piperazine-1-carbonyl)piperidin-4-yl)methyl)piperidin-4-yl)-2-(4-phenoxyphenyl)-4,5,6,7-tetrahydropyrazolo[1,5-a]pyrimidine-3-carboxamide] are greater than 50 nM, greater than 50%, greater than 10000 nM and greater than 10000 nM.
For `NC(=O)c1c(-c2ccc(Oc3ccccc3)cc2)nn2c1NCC[C@H]2C1CCN(CC2CCN(C(=O)N3CCN(C4CCN(c5ccc6c(c5)C(=O)N(C5CCC(=O)NC5=O)C6=O)CC4)CC3)CC2)CC1` (some centres unmarked) [Compound 401] the same measures were 10 to 50 nM, greater than 90%, 1000 to 10000 nM and 1000 to 10000 nM.
